The source of these data is patent publication US20070049593A1 (priority 2004, published 2007).

Counter-ions that a name gives are not always drawn. Like-named read-outs stand apart in the source and are kept apart here.

The target of this test is T1, HCV polymerase (Hepatitis C virus genotype 1b, UniProt P26663).
T1 construct: a region encoding NS5B (J Virol 1991 March, 65(3), 1105-13, 544 amino acids after deletion of 47 amino acids on the C-terminal); 6xHis (C); made in house; host or cells: Escherichia coli
T1 sequence (P26663 2420-2963): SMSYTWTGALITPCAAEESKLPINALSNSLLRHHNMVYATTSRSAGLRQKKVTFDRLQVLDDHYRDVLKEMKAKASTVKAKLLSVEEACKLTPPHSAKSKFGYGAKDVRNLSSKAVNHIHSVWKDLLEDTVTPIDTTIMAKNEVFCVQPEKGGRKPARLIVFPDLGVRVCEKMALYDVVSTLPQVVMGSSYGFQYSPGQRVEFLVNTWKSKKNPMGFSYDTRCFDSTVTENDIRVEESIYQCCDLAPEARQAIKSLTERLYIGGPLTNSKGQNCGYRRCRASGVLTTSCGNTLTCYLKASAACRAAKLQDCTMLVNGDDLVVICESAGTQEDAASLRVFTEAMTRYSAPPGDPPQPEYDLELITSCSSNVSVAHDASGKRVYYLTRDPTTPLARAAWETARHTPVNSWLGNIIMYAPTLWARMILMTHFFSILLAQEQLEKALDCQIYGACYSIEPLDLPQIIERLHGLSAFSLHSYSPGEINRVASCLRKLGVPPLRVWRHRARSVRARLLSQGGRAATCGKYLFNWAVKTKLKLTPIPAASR
As to the kind of experiment: biochemical. On the set-up: species or system HCV BK strain. The text has this: The evaluation of the HCV polymerase inhibitory activity of the compound of the present invention is explained in the following. This polymerase is an enzyme coded for by the non-structural protein region called NS5B on the genome RNA of HCV (EMBO J., 15:12-22, 1996).
Using, as a template, a cDNA clone corresponding to the full length genome RNA of HCV BK strain obtained from the blood of a patient with hepatitis C, a region encoding NS5B (J Virol 1991 March, 65(3), 1105-13, 544 amino acids after deletion of 47 amino acids on the C-terminal) was amplified by PCR. The objective gene was prepared by adding a 6 His tag {base pair encoding 6 continuous histidine (His)}to the 3′ end thereof and transformed to Escherichia coli. The Escherichia coli capable of producing the objective protein was cultured. The obtained cells were suspended in a buffer solution and crushed in a microfluidizer.
Using a synthetic primer designed based on the sequence of HCV genomic 3′ untranslated region, a DNA fragment (148 bp) containing polyU and 3′X sequence was entirely synthesized and cloned into plasmid pBluescript SK II(+) (Stratagene). The cDNA encoding full length NS5B, which was prepared in i) above, was digested with restriction enzyme KpnI to give a cDNA fragment containing the nucleotide sequence of from the restriction enzyme cleavage site to the termination codon. This cDNA fragment was inserted into the upstream of 3′ untranslated region of the DNA in pBluescript SK II(+) and ligated. The about 450 bp inserted DNA sequence was used as a template in the preparation of substrate RNA.
RNA was synthesized (37° C., 3 hr) by run-off method using this purified DNA as a template, a promoter of pBluescript SK II(+), MEGAscript RNA synthesis kit (Ambion) and T7 RNA polymerase. DNase I was added and the mixture was incubated for 1 hr. The template DNA was removed by decomposition to give a crude RNA product.
A test substance (compound of the present invention) and a reaction mixture (30 μl) having the following composition were reacted at 25° C. for 90 min.
10% Trichloroacetic acid at 4° C. and 1% sodium pyrophosphate solution (150 μl) were added to this reaction mixture to stop the reaction. The reaction mixture was left standing in ice for 15 min to insolubilize RNA. This RNA was trapped on a glass filter (Whatman GF/C and the like) upon filtration by suction. This filter was washed with a solution containing 1% trichloroacetic acid and 0.1% sodium pyrophosphate, washed with 90% ethanol and dried. A liquid scintillation cocktail (Packard) was added and the radioactivity of RNA synthesized by the enzyme reaction was measured on a liquid scintillation counter.
The HCV polymerase inhibitory activity (IC50) of the compound of the present invention was calculated from the values of radioactivity of the enzyme reaction with and without the test substance.
Reaction mixture: HCV polymerase (0.5 μg/ml) obtained in i), substrate RNA (5 μg/ml) obtained in ii), ATP (50 μM), GTP (50 μM), CTP ([…]), UTP (2 μM), [5,6-^3H]UTP (46 Ci/mmol (Amersham), 1 μCi) 20 mM Tris-HCl (pH 7.5), EDTA (1 mM), MgCl2 (5 mM), NaCl (50 mM), DTT (1 mM), BSA (0.01%)

The IC50 is the midpoint of a concentration-inhibition curve. For the molecule `CCN1CCCN(C(=O)CN2CCn3c(c(C4CCCCC4)c4ccc(C(=O)O)cc43)-c3ccccc32)CC1` [Example 1-239, 13-cyclohexyl-5-[2-(4-ethyl-1,4-diazepan-1-yl)-2-oxoethyl]-6,7-dihydro-5H-benzo[5,6][1,4]diazepino[7,1-a]indole-10-carboxylic acid dihydrochloride], the IC50 is below 100 nM.

`COC(=O)[C@H](Cc1ccncc1)NC(=O)c1ccc2c(C3CCCCC3)c3n(c2c1)CCOc1cc(OC)ccc1-3` [Example 2-356, methyl (S)-2-[(12-cyclohexyl-3-methoxy-6,7-dihydro-5-oxa-7a-azadibenzo[a,e]azulene-9-carbonyl)amino]-3-(pyridin-4-yl)propionate]: the IC50 is below 100 nM.

For `COC(=O)C(Cc1ccc(O)cc1)NC(=O)c1ccc2c(C3CCCCC3)c3n(c2c1)CCN(C)c1cc(C)ccc1-3` [Example 1-473, methyl (S)-2-[(13-cyclohexyl-3,5-dimethyl-6,7-dihydro-5H-benzo[5,6][1,4]diazepino[7,1-a]indole-10-carbonyl)amino]-3-(4-hydroxyphenyl)propionate], for the setting “25° C., 90 min, [5,6-3H]UTP incorporation into RNA, read-out: HCV polymerase inhibitory activity IC50”, the IC50 was below 100 nM.

The molecule `COC(=O)C(Cc1ccc(CO)cc1)NC(=O)c1ccc2c(C3CCCCC3)c3n(c2c1)CCOc1cc(OC)ccc1-3` (centres unmarked) [Example 2-393, methyl 2-[(12-cyclohexyl-3-methoxy-6,7-dihydro-5-oxa-7a-azadibenzo[a,e]azulene-9-carbonyl)amino]-3-(4-hydroxymethylphenyl)propionate] yielded an IC50 below 100 nM.

`CC(C)(CNc1ccc(C(=O)O)cn1)NC(=O)c1ccc2c(C3CCCCC3)c3n(c2c1)CCOc1ccccc1-3` [Example 2-255, 6-{2-[(12-cyclohexyl-6,7-dihydro-5-oxa-7a-azadibenzo[a,e]azulene-9-carbonyl)amino]-2-methylpropylamino}nicotinic acid] gave an IC50 below 100 nM.

Molecule `COCCOc1ccc2c(c1)N(CCN1CCCCC1)CCn1c-2c(C2CCCCC2)c2ccc(C(=O)O)cc21` [Example 1-546, 13-cyclohexyl-3-(2-methoxyethoxy)-5-[2-(piperidin-1-yl)ethyl]-6,7-dihydro-5H-benzo[5,6][1,4]diazepino[7,1-a]indole-10-carboxylic acid dihydrochloride] yielded an IC50 below 100 nM.

With `CCCN(CCN1CCCCC1)c1cccc2c1OCCn1c-2c(C2CCCCC2)c2ccc(C(=O)O)cc21` [Example 2-481, 12-cyclohexyl-4-{N-[2-(piperidin-1-yl)ethyl]-N-propylamino}-6,7-dihydro-5-oxa-7a-azadibenzo[a,e]azulene-9-carboxylic acid dihydrochloride], the IC50 was below 100 nM.

Molecule `COCCC1CCCN(CCN2CCn3c(c(C4CCCCC4)c4ccc(C(=O)O)cc43)-c3ccccc32)C1` (centres unmarked) [Example 1-306, 13-cyclohexyl-5-{2-[3-(2-methoxyethyl)piperidin-1-yl]ethyl}-6,7-dihydro-5H-benzo[5,6][1,4]diazepino[7,1-a]indole-10-carboxylic acid dihydrochloride] came in with a half-maximal inhibitory concentration (IC50) below 100 nM.

`O=C(O)c1ccc2c(C3CCCCC3)c3n(c2c1)CCOc1c-3cccc1N(CCN1CCCCC1)CCN1CCCCC1` [Example 2-278, 4-{bis[2-(piperidin-1-yl)ethyl]amino}-12-cyclohexyl-6,7-dihydro-5-oxa-7a-azadibenzo[a,e]azulene-9-carboxylic acid dihydrochloride] displayed an IC50 below 100 nM.

With `COc1ccc2c(c1)OCCn1c-2c(C2CCCCC2)c2ccc(C(=O)N[C@@H](Cc3ccc(O)cc3)c3nccs3)cc21` [Example 2-381, N—(S)-[2-(4-hydroxyphenyl)-1-(thiazol-2-yl)ethyl]-12-cyclohexyl-3-methoxy-6,7-dihydro-5-oxa-7a-azadibenzo[a,e]azulene-9-carboxamide], the IC50 was below 100 nM.

On to `CCN1CCN(C(=O)CN2CCn3c(c(C4CCCCC4)c4ccc(C(=O)NC(C)(C)CO)cc43)-c3ccccc32)CC1` [Example 1-86, 13-cyclohexyl-5-[2-(4-ethylpiperazin-1-yl)-2-oxoethyl]-N-(2-hydroxy-1,1-dimethylethyl)-6,7-dihydro-5H-benzo[5,6][1,4]diazepino[7,1-a]indole-10-carboxamide], for which the IC50 was 100 to 1000 nM.
